Reference: DBAASP
Values after ≈ are worked out from the molar mass of the structure shown. Values joined by “and” are separate entries in the source; they are usually repeats but may differ in a detail not shown here. Equal values may be shown once. One block for each compound: values may come before it.

Experiments:
Test in all cases: ≥ marks a high value that may be exact or a test limit, other limits are often not marked, values filed in µg/mL are converted to µM
[1] = test system: Staphylococcus aureus 209P
[2] = test system: Pseudomonas aeruginosa PAO1
Escherichia coli C600 = test system: Escherichia coli C600
[3] = test system: Trichoderma virens KCTC 16924
[4] = test system: Fusarium graminearum KCTC 16656
[5] = test system: Trichoderma viride KCTC 16992
[6] = test system: Fusarium verticillioides KCTC 6149
[7] = test system: Candida krusei CCARM 14017
[8] = test system: Aspergillus flavus KCTC 6905
[9] = test system: Candida albicans CCARM 14020
[10] = test system: Colletotrichum gloeosporioides KCTC 6169
[11] = test system: Candida albicans CCARM 14007
[12] = test system: Candida albicans CCARM 14001
[13] = test system: Candida albicans CCARM 14004
[14] = test system: Candida parapsilosis CCARM 14016
[15] = test system: Candida albicans KCTC 7270
[16] = test system: Fusarium oxysporum KCTC 16909
[17] = test system: Trichophyton rubrum KCTC 6345
[18] = test system: Fusarium solani KCTC 6326
[19] = test system: Pseudomonas aeruginosa ATCC 27853
[20] = test system: Candida albicans NCYC 1467
[21] = test system: Staphylococcus aureus NCTC 10788
[22] = test system: Staphylococcus aureus ATCC 12493
[23] = test system: Escherichia coli NCTC 10418
Pseudomonas aeruginosa = test system: Pseudomonas aeruginosa
[24] = test system: Escherichia coli ATCC 25922
[25] = test system: Salmonella enterica subsp. enterica serovar Typhimurium ATCC 14028
[26] = test system: Pseudomonas aeruginosa CICC 21630
Escherichia coli K88 = test system: Escherichia coli K88
[27] = test system: Salmonella enterica subsp. enterica serovar Typhimurium C77-31
[28] = test system: Pseudomonas aeruginosa CICC 21625
Escherichia coli UB1005 = test system: Escherichia coli UB1005
Klebsiella pneumoniae = test system: Klebsiella pneumoniae
[29] = test system: Salmonella enterica subsp. enterica serovar Pullorum C79-13
Escherichia coli K99 = test system: Escherichia coli K99
Acinetobacter baumannii = test system: Acinetobacter baumannii
Escherichia coli = test system: Escherichia coli
[30] = test system: Staphylococcus aureus ATCC 25923
[31] = test system: Klebsiella pneumoniae ATCC 13883
[32] = test system: Klebsiella pneumoniae KpC+001825971
[33] = test system: Escherichia coli KpC+001812446
[34] = test system: Escherichia coli BL21(DE3)

Structure (SMILES): CC[C@H](C)[C@@H]1NC(=O)[C@H](CO)NC(=O)[C@H](CCCCN)NC(=O)[C@H]([C@@H](C)O)NC(=O)[C@H](Cc2c[nH]c3ccccc23)NC(=O)[C@@H](NC(=O)CNC(=O)[C@H](CCCN=C(N)N)NC(=O)[C@H](CC(C)C)NC(=O)[C@H](C)N)CSSC[C@@H](C(=O)N2CCC[C@H]2C(N)=O)NC(=O)[C@@H]2CCCN2C(=O)[C@H](CCCCN)NC(=O)[C@@H]2CCCN2C(=O)[C@@H]2CCCN2C1=O [ALRGCWTKSIPPKPCP]
MIC [19]: > 512 µM
MIC [20]: ≥ 512 µM
MIC [21]: ≥ 128 µM
MIC [22]: ≥ 512 µM
MIC [23]: ≥ 128 µM

Structure (SMILES): CC[C@H](C)[C@H](NC(=O)[C@H](CCCCN)NC(=O)[C@H](CCCCN)NC(=O)[C@H](CC(C)C)NC(=O)[C@H](CO)NC(=O)CNC(=O)[C@H](CO)NC(=O)CNC(=O)[C@H](CO)NC(=O)CNC(=O)[C@H](CO)NC(=O)CN)C(=O)N[C@@H](Cc1ccccc1)C(=O)N[C@@H](CCCCN)C(=O)N[C@@H](CCCCN)C(=O)N1CCC[C@H]1C(=O)N[C@@H](CCSC)C(=O)N[C@H](C(=O)N[C@H](C(=O)NCC(=O)N[C@H](C(=O)N[C@H](C(=O)N[C@H](C(=O)N1CCC[C@H]1C(=O)N[C@@H](Cc1ccccc1)C(N)=O)[C@@H](C)CC)[C@@H](C)O)C(C)C)[C@@H](C)CC)C(C)C [GSGSGSGSLKKIFKKPMVIGVTIPF]
MIC [24]: 0.789 µM (≈ 2 µg/mL)
MIC [30]: 25.2 µM (≈ 64 µg/mL)
MIC [31]: 0.789 µM (≈ 2 µg/mL)
MIC [32]: 6.31 µM (≈ 16 µg/mL)
MIC [33]: 0.789 µM (≈ 2 µg/mL)

Structure (SMILES): NCCCC[C@H](NC(=O)[C@H](CCCCN)NC(=O)[C@H](Cc1cnc[nH]1)NC(=O)[C@H](CCCCN)NC(=O)[C@H](CCCCN)NC(=O)[C@H](Cc1cnc[nH]1)NC(=O)[C@H](CCCCN)NC(=O)[C@H](CCCCN)NC(=O)[C@H](Cc1cnc[nH]1)NC(=O)[C@H](CCCCN)NC(=O)[C@H](CCCCN)NC(=O)[C@@H](N)Cc1cnc[nH]1)C(N)=O [HKKHKKHKKHKK]
MIC [3]: 16 µM (≈ 25.5 µg/mL)
MIC [4]: 16 µM (≈ 25.5 µg/mL)
MIC [5]: 4 µM (≈ 6.36 µg/mL)
MIC [6]: 4 µM (≈ 6.36 µg/mL)
MIC [7]: 4 µM (≈ 6.36 µg/mL)
MIC [8]: 8 µM (≈ 12.7 µg/mL)
MIC [9]: ≥ 32 µM
MIC [10]: 2 µM (≈ 3.18 µg/mL)
MIC [11]: ≥ 32 µM
MIC [12]: ≥ 32 µM
MIC [13]: ≥ 32 µM
MIC [14]: ≥ 32 µM
MIC [15]: ≥ 32 µM
MIC [16]: 4 µM (≈ 6.36 µg/mL)
MIC [17]: 16 µM (≈ 25.5 µg/mL)
MIC [18]: 4 µM (≈ 6.36 µg/mL)

Further lines, results first:

MIC [1]: 1.56 µM (≈ 3.6 µg/mL)
MIC [2]: 6.25 µM (≈ 14.4 µg/mL)
MIC (Escherichia coli C600): 1.56 µM (≈ 3.6 µg/mL)
Structure (SMILES): CC(C)[C@@H]1NC(=O)[C@H](CCCN=C(N)N)NC(=O)[C@H](Cc2ccccc2)NC(=O)[C@@H](NC(=O)[C@H](Cc2c[nH]c3ccccc23)NC(=O)[C@@H](N)CCCCN)CSSC[C@@H](C(=O)N[C@@H](CCCN=C(N)N)C(=O)O)NC(=O)[C@H](CCCN=C(N)N)NC(=O)[C@H](CCCN=C(N)N)NC(=O)[C@H](Cc2ccc(O)cc2)NC(=O)[C@@H]2CSSC[C@H](NC1=O)C(=O)N[C@@H](Cc1ccc(O)cc1)C(=O)N[C@@H](CCCN=C(N)N)C(=O)NCC(=O)N[C@@H](CCCN=C(N)N)C(=O)N2 [KWCFRVCYRGRCYRRCR]

MIC [3]: ≥ 512 µM
MIC [4]: ≥ 512 µM
MIC [5]: ≥ 256 µM
MIC [6]: ≥ 256 µM
MIC [7]: ≥ 512 µM
MIC [8]: ≥ 256 µM
MIC [9]: ≥ 1020 µM
MIC [10]: ≥ 1020 µM
MIC [11]: ≥ 1020 µM
MIC [12]: ≥ 1020 µM
MIC [13]: ≥ 1020 µM
MIC [14]: ≥ 1020 µM
MIC [15]: ≥ 1020 µM
MIC [16]: ≥ 256 µM
MIC [17]: ≥ 512 µM
MIC [18]: ≥ 256 µM
Structure (SMILES): NCCCC[C@H](NC(=O)[C@H](CCCCN)NC(=O)[C@@H](N)Cc1cnc[nH]1)C(N)=O [HKK]

MIC (Pseudomonas aeruginosa): 32 µM (≈ 72.8 µg/mL)
MIC [24]: 2 µM (≈ 4.55 µg/mL)
MIC [25]: 8 µM (≈ 18.2 µg/mL)
MIC [19]: 16 µM (≈ 36.4 µg/mL)
MIC [26]: ≥ 32 µM
MIC (Escherichia coli K88): 2 µM (≈ 4.55 µg/mL)
MIC [27]: 16 µM (≈ 36.4 µg/mL)
MIC [28]: ≥ 64 µM
MIC (Escherichia coli UB1005): 2 µM (≈ 4.55 µg/mL)
MIC (Klebsiella pneumoniae): 32 µM (≈ 72.8 µg/mL)
MIC [29]: 4 µM (≈ 9.1 µg/mL)
MIC (Escherichia coli K99): 2 µM (≈ 4.55 µg/mL)
MIC (Acinetobacter baumannii): 4 µM (≈ 9.1 µg/mL)
MIC (Escherichia coli): 4 µM (≈ 9.1 µg/mL)
MIC [2]: > 64 µM
Structure (SMILES): CC(C)C[C@H](NC(=O)[C@@H]1CCCN1C(=O)[C@H](CCCCN)NC(=O)[C@H](CC(C)C)NC(=O)[C@H](CC(C)C)NC(=O)[C@@H]1CCCN1C(=O)[C@H](CCCCN)NC(=O)[C@H](CC(C)C)NC(=O)[C@H](CC(C)C)NC(=O)[C@@H]1CCCN1C(=O)[C@H](CCCCN)NC(=O)[C@H](CC(C)C)NC(=O)[C@H](CC(C)C)NC(=O)[C@@H]1CCCN1C(=O)[C@H](CCCCN)NC(=O)[C@H](CC(C)C)NC(=O)[C@H](CC(C)C)NC(=O)[C@@H]1CCCN1C(=O)[C@H](CCCCN)NC(=O)[C@@H](N)CC(C)C)C(N)=O [LKPLLKPLLKPLLKPLLKPL]

MIC [31]: 4 µM (≈ 6.65 µg/mL)
MIC [34]: 8 µM and 4 µM
Structure (SMILES): CC[C@H](C)[C@H](NC(=O)[C@H](CC(C)C)NC(=O)[C@H](CCCN=C(N)N)NC(=O)[C@@H](N)CCCN=C(N)N)C(=O)N[C@@H](CCCN=C(N)N)C(=O)N[C@@H](CC(C)C)C(=O)N[C@@H](Cc1c[nH]c2ccccc12)C(=O)N[C@@H](CC(C)C)C(=O)N[C@@H](CCCN=C(N)N)C(=O)N[C@@H](CC(C)C)C(=O)N[C@@H](CC(C)C)C(=O)N[C@@H](CCCN=C(N)N)C(N)=O [RRLIRLWLRLLR]
